Reference: PubChem BioAssay AID248 (DTP/NCI, 2004)
Several values for one entry are separate records, joined by “and”; a condition that tells them apart may be missing. Equal entries are not always repeated. Inconclusive results and toxic doses are left out.

Tested on: L1210 leukemia ip in BDF1 mice, survival T/C
Test: NCI In Vivo Anticancer Drug Screen. Data for tumor model L1210 Leukemia (intraperitoneal) in B6D2F1 (BDF1) mice
Conditions: endpoint: mean survival time, higher = longer survival
Outline: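 Value reflects the ratio of survival in compound-treated mice to survival in vehicle-treated controls, with both groups carrying the same transplanted tumor.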

[1] = dose: 100.0 mg/kg/injection, schedule: Q04DX003 (ip), vehicle: Klucel (hydroxypropylcellulose) (HPC)
[2] = dose: 200.0 mg/kg/injection, schedule: Q04DX003 (ip), vehicle: Klucel (hydroxypropylcellulose) (HPC)
[3] = dose: 100.0 mg/kg/injection, schedule: Q04DX002 (ip), vehicle: Klucel (hydroxypropylcellulose) (HPC)
[4] = dose: 200.0 mg/kg/injection, schedule: Q04DX002 (ip), vehicle: Klucel (hydroxypropylcellulose) (HPC)
[5] = dose: 100.0 mg/kg/injection, schedule: Q01DX009 (ip), vehicle: saline with Tween-80
[6] = dose: 200.0 mg/kg/injection, schedule: Q01DX009 (ip), vehicle: saline with Tween-80
[7] = dose: 400.0 mg/kg/injection, schedule: Q01DX009 (ip), vehicle: saline with Tween-80
[8] = dose: 100.0 mg/kg/injection, schedule: Q01DX001 (ip), vehicle: Klucel (hydroxypropylcellulose) (HPC)
[9] = dose: 200.0 mg/kg/injection, schedule: Q04DX003 (ip), vehicle: saline with Tween-80

C=C1C(=O)OC2CC(C)C3CC(=O)C(C)=C3C(O)C12 (centres undefined)
T/C (dose: 25.0 mg/kg/injection, schedule: Q01DX009 (ip), vehicle: saline): 94 % of control
T/C (dose: 50.0 mg/kg/injection, schedule: Q01DX009 (ip), vehicle: saline): 98 % of control

COC(=O)C(C)(OC)OC
T/C (dose: 100.0 mg/kg/injection, schedule: Q01DX009 (ip), vehicle: saline): 104 % of control
T/C [1]: 96 % of control
T/C (dose: 200.0 mg/kg/injection, schedule: Q01DX009 (ip), vehicle: saline): 112 % of control
T/C [2]: 100 % of control
T/C (dose: 400.0 mg/kg/injection, schedule: Q01DX009 (ip), vehicle: saline): 105 % of control
T/C (dose: 400.0 mg/kg/injection, schedule: Q04DX003 (ip), vehicle: Klucel (hydroxypropylcellulose) (HPC)): 96 % of control

COc1ccc(-c2ccc(C(C)=O)cc2)cc1
T/C [3]: 90 % of control
T/C [4]: 100 % of control
T/C (dose: 400.0 mg/kg/injection, schedule: Q04DX002 (ip), vehicle: Klucel (hydroxypropylcellulose) (HPC)): 100 % of control

Cc1c(O)ccc2ccc(=O)oc12
T/C (dose: 100.0 mg/kg/injection, schedule: Q01DX001 (ip), vehicle: carboxymethylcellulose (CMC)): 98 % of control
T/C (dose: 200.0 mg/kg/injection, schedule: Q01DX001 (ip), vehicle: carboxymethylcellulose (CMC)): 90 % of control
T/C (dose: 400.0 mg/kg/injection, schedule: Q01DX001 (ip), vehicle: carboxymethylcellulose (CMC)): 93 % of control

O=C1CC(c2ccc(OCN(CCCl)CCCl)cc2)CC(=O)C1CN(CCCl)CCCl (centres undefined)
T/C (dose: 0.2 mg/kg/injection, schedule: Q01DX009 (ip), vehicle: carboxymethylcellulose (CMC)): 95 % of control
T/C (dose: 0.37 mg/kg/injection, schedule: Q01DX009 (ip), vehicle: saline): 122 % of control
T/C (dose: 0.39 mg/kg/injection, schedule: Q01DX009 (ip), vehicle: carboxymethylcellulose (CMC)): 102 % of control
T/C (dose: 0.5 mg/kg/injection, schedule: Q01DX009 (ip), vehicle: carboxymethylcellulose (CMC)): 101 % of control
T/C (dose: 0.9 mg/kg/injection, schedule: Q01DX009 (ip), vehicle: carboxymethylcellulose (CMC)): 107 % of control
T/C (dose: 1.0 mg/kg/injection, schedule: Q01DX009 (ip), vehicle: carboxymethylcellulose (CMC)): 104 % of control
T/C (dose: 1.4 mg/kg/injection, schedule: Q01DX009 (ip), vehicle: carboxymethylcellulose (CMC)): 87 % of control
T/C (dose: 2.0 mg/kg/injection, schedule: Q01DX001 (ip), vehicle: saline): 193 % of control
T/C (dose: 2.0 mg/kg/injection, schedule: Q01DX009 (ip), vehicle: carboxymethylcellulose (CMC)): 114 % of control
T/C (dose: 3.0 mg/kg/injection, schedule: Q01DX009 (ip), vehicle: saline): 106 % of control and 90 % of control
T/C (dose: 4.0 mg/kg/injection, schedule: Q01DX001 (ip), vehicle: saline): 104 % of control and 109 % of control
T/C (dose: 6.0 mg/kg/injection, schedule: Q04DX003 (ip), vehicle: saline): 123 % of control
T/C (dose: 6.6 mg/kg/injection, schedule: Q01DX009 (ip), vehicle: carboxymethylcellulose (CMC)): 157 % of control
T/C (dose: 7.5 mg/kg/injection, schedule: Q01DX001 (ip), vehicle: saline): 122 % of control
T/C (dose: 8.58 mg/kg/injection, schedule: Q01DX001 (ip), vehicle: carboxymethylcellulose (CMC)): 124 % of control
T/C (dose: 10.0 mg/kg/injection, schedule: Q01DX009 (ip), vehicle: carboxymethylcellulose (CMC)): 93 % of control
T/C (dose: 13.0 mg/kg/injection, schedule: Q01DX001 (ip), vehicle: carboxymethylcellulose (CMC)): 114 % of control
T/C (dose: 19.5 mg/kg/injection, schedule: Q01DX001 (ip), vehicle: carboxymethylcellulose (CMC)): 118 % of control
T/C (dose: 0.1 micrograms/kg/injection, schedule: Q01DX001 (ip), vehicle: saline): 100 % of control
T/C (dose: 0.2 micrograms/kg/injection, schedule: Q01DX001 (ip), vehicle: saline): 102 % of control
T/C (dose: 0.5 micrograms/kg/injection, schedule: Q01DX001 (ip), vehicle: saline): 100 % of control
T/C (dose: 1.0 micrograms/kg/injection, schedule: Q01DX001 (ip), vehicle: saline): 100 % of control

C[n+]1cccc2cc(Br)ccc21
T/C (dose: 5.0 mg/kg/injection, schedule: Q01DX001 (ip), vehicle: other): 100 % of control
T/C (dose: 10.0 mg/kg/injection, schedule: Q01DX001 (ip), vehicle: other): 107 % of control
T/C (dose: 20.0 mg/kg/injection, schedule: Q01DX001 (ip), vehicle: other): 111 % of control
T/C (dose: 40.0 mg/kg/injection, schedule: Q01DX001 (ip), vehicle: other): 105 % of control

N#Cc1cnc(N)c(C#N)c1
T/C (dose: 74.0 mg/kg/injection, schedule: Q01DX009 (ip), vehicle: Klucel (hydroxypropylcellulose) (HPC)): 98 % of control
T/C (dose: 150.0 mg/kg/injection, schedule: Q01DX009 (ip), vehicle: Klucel (hydroxypropylcellulose) (HPC)): 100 % of control

C=C(Br)CN(CCCC)C(C)=O
T/C (dose: 100.0 mg/kg/injection, schedule: Q01DX009 (ip), vehicle: Klucel (hydroxypropylcellulose) (HPC)): 100 % of control
T/C [1]: 103 % of control
T/C (dose: 200.0 mg/kg/injection, schedule: Q01DX009 (ip), vehicle: Klucel (hydroxypropylcellulose) (HPC)): 108 % of control
T/C [2]: 100 % of control and 92 % of control

C[Si](C)(C)C1C=Cc2ccccc2C1[Si](C)(C)C (centres undefined)
T/C [5]: 94 % of control
T/C [6]: 91 % of control
T/C [7]: 94 % of control

CC(C)(C)Sc1cccnc1
T/C [5]: 94 % of control
T/C [6]: 98 % of control

CC(=O)Nc1ccc(-c2ccccc2)cc1
T/C [8]: 99 % of control
T/C [5]: 110 % of control
T/C (dose: 200.0 mg/kg/injection, schedule: Q01DX001 (ip), vehicle: Klucel (hydroxypropylcellulose) (HPC)): 99 % of control
T/C [6]: 86 % of control

CC1=CC(C)(C)NC(=S)N1c1ccc(N(C)C)cc1
T/C (dose: 112.0 mg/kg/injection, schedule: Q01DX Z (ip), vehicle: methylcellulose (MC)): 101 % of control
T/C (dose: 166.0 mg/kg/injection, schedule: Q01DX Z (ip), vehicle: methylcellulose (MC)): 96 % of control
T/C (dose: 250.0 mg/kg/injection, schedule: Q01DX Z (ip), vehicle: methylcellulose (MC)): 94 % of control
T/C (dose: 375.0 mg/kg/injection, schedule: Q01DX Z (ip), vehicle: methylcellulose (MC)): 96 % of control

Cc1ccc(NCC(=O)NN)cc1
T/C [3]: 104 % of control
T/C [4]: 107 % of control

C[N+](C)(C)CC1(COC(=O)C(O)(c2ccccc2)c2ccccc2)CC1
T/C (dose: 12.0 mg/kg/injection, schedule: Q04DX003 (ip), vehicle: Klucel (hydroxypropylcellulose) (HPC)): 97 % of control
T/C (dose: 25.0 mg/kg/injection, schedule: Q01DX001 (ip), vehicle: Klucel (hydroxypropylcellulose) (HPC)): 93 % of control
T/C (dose: 25.0 mg/kg/injection, schedule: Q04DX003 (ip), vehicle: Klucel (hydroxypropylcellulose) (HPC)): 105 % of control
T/C (dose: 50.0 mg/kg/injection, schedule: Q01DX001 (ip), vehicle: Klucel (hydroxypropylcellulose) (HPC)): 100 % of control
T/C (dose: 50.0 mg/kg/injection, schedule: Q04DX003 (ip), vehicle: Klucel (hydroxypropylcellulose) (HPC)): 95 % of control
T/C [8]: 96 % of control and 100 % of control

Cc1cc(C)c(C(=O)c2no[n+]([O-])c2C(=O)c2c(C)cc(C)c(Br)c2C)c(C)c1Br
T/C [9]: 87 % of control

COc1ccc(CCNC(=O)c2ccccc2N)cc1OC
T/C (dose: 100.0 mg/kg/injection, schedule: Q01DX001 (ip), vehicle: saline with Tween-80): 97 % of control
T/C [5]: 90 % of control and 91 % of control
T/C (dose: 100.0 mg/kg/injection, schedule: Q04DX002 (ip), vehicle: saline with Tween-80): 98 % of control
T/C (dose: 100.0 mg/kg/injection, schedule: Q04DX003 (ip), vehicle: saline with Tween-80): 105 % of control
T/C (dose: 200.0 mg/kg/injection, schedule: Q01DX001 (ip), vehicle: saline with Tween-80): 98 % of control
T/C [6]: 95 % of control and 109 % of control
T/C (dose: 200.0 mg/kg/injection, schedule: Q04DX002 (ip), vehicle: saline with Tween-80): 98 % of control
T/C [9]: 92 % of control
T/C (dose: 400.0 mg/kg/injection, schedule: Q01DX001 (ip), vehicle: saline with Tween-80): 106 % of control
T/C [7]: 90 % of control and 91 % of control
T/C (dose: 400.0 mg/kg/injection, schedule: Q04DX002 (ip), vehicle: saline with Tween-80): 95 % of control
T/C (dose: 400.0 mg/kg/injection, schedule: Q04DX003 (ip), vehicle: saline with Tween-80): 95 % of control

CCCCCCCCCCNC(=O)C[n+]1cccc(C(=O)Nc2ccc(Cl)cc2)c1
T/C (dose: 6.25 mg/kg/injection, schedule: Q01DX009 (ip), vehicle: acetone): 97 % of control
T/C (dose: 12.5 mg/kg/injection, schedule: Q01DX009 (ip), vehicle: acetone): 92 % of control
T/C (dose: 12.5 mg/kg/injection, schedule: Q04DX003 (ip), vehicle: saline): 108 % of control
T/C (dose: 25.0 mg/kg/injection, schedule: Q04DX003 (ip), vehicle: saline): 96 % of control
